Patent US20040023984A1, “Compounds for the treatment of alzheimer's disease” (priority 1987, published 2004)
Like-named read-outs stand apart in the source and are kept apart here.

Assays:
acetylcholinesterase [1] = molecular target: T1, acetylcholinesterase (Homo sapiens, UniProt P22303); assay: Inhibition of acetylcholinesterase, procedure of Ellman (acetylthiocholine substrate, photometric); type: biochemical; details: for cholinesterase inhibition at 10^−5 M: further compounds; for inhibition at 1 µM: read-out: inhibition of acetylcholinesterase at concentration 10^−6 molar; for inhibition at 0.001 µM: read-out: inhibition of acetylcholinesterase at concentration 10^−9 molar
T1 sequence (P22303 32-614, species assumed): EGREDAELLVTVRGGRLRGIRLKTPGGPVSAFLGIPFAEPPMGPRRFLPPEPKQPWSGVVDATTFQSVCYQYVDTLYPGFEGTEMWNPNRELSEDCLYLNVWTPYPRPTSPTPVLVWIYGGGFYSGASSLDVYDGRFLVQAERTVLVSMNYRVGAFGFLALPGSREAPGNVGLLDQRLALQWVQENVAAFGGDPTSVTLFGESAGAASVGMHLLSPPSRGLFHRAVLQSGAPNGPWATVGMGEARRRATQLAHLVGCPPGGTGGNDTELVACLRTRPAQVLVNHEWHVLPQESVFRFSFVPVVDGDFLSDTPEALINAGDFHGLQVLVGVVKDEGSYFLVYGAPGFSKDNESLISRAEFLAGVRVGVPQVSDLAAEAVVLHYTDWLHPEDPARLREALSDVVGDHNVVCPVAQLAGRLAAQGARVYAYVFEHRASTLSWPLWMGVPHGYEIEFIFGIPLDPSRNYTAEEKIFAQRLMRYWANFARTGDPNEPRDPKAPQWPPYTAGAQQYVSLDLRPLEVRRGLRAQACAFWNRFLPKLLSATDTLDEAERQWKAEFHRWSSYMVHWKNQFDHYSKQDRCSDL
Procedure: The anticholinesterase activity of the compounds prepared in the above examples was assayed by an assay for inhibition of acetylcholinesterase following the procedure of G. Ellman, […], 7:88-95 (1961) Acetylthiocholine serves as substrate since it acts like acetylcholine. Acetylcholinesterase cleaves it to thiocholine and acetate which react with dithiobisnitrobenzoate to form a yellow color which is measured photometrically.
This assay was carried out at dilution of 10^−5 molar
The compounds were tested in the assay described after Example 5 but at different concentrations. The results obtained were as follows:
Further compounds were prepared by methods analogous to those described above and were tested in a cholinesterase assay as described above.

[2] = test system: scopolamine induced memory deficit; assay: Scopolamine dementia dark avoidance test (passive avoidance); type: in vivo, male CFW mice
Procedure: Furnished data on the effects of these compound on cholinesterase activity were used to determine doses for testing. […] The two other compounds were tested at 1,3 and 10 mg/kg sc and did antagonize the scopolamine induced deficit.
Training and testing of passive avoidance were conducted in a two-compartment (light/dark) test cage. On the training day, mice were individually placed in the light half of the cage and after entering the dark compartment, were administered a 3 sec 0.4 mA footshock. They were then removed from the test chamber and returned to their home cages. Twenty-four hours later, the animals were again placed in the lighted half of the test cage and the latency to enter the dark compartment was measured.
All animals in each group of 15 naive male CFW mice were injected twice subcutaneously. Thirty minutes prior to training, animals were administered 3 mg/kg scopolamine HBr or its 0.9% NaCl vehicle. Five minutes prior to training, independent groups were administered one of three doses of the test compounds or the distilled water vehicle. One group in each experiment received vehicle twice, another group received scopolamine and the dH2O vehicle; the remaining groups received scopolamine and a test compound.
A cutoff value (CO), defined as the second-longest latency in the scopolamine/vehicle treated group, was used to determine whether a compound was active. If 20% or more of the animals in a treatment group had latencies greater than the CO value, the compound was considered active at that dose.
The three compounds were tested in two separate experiments; the results are presented below in Tables 1 and 2. Doses considered active are marked with an asterisk (*).

[3] = test system: nucleas basalis-lesioned animals; assay: Nucleus basalis model, passive avoidance in shuttle box; type: in vivo, mice; details: nucleus basalis model, mice, drug given three and ½ hours before learning trials
From the text: The following test provides a good animal model for Alzheimer's disease in humans: A selective lesion is placed in a subcortical nucleus (nucleus basalis of Meynert) with a resultant cortical cholinergic deficiency, similar in magnitude to that seen in early to moderate stage Alzheimer's disease. Numerous behavioral deficits, including the inability to learn and retain new information, characterizes this lesion. Drugs that can normalize these abnormalities would have a reasonable expectation of efficacy in Alzheimer's disease. Haroutunian, V, Kanof P, Davis, K L: Pharmacological alleviations of cholinergic-lesion-induced memory defects in rats. Life Sciences, 37:945-952 (1985).
Galanthamine n-butyl carbamate was tested in the nucleus basalis model for galanthamine discussed in the Hartounian et al paper noted above. In the test, mice were given the drug three and ½ hours before two learning trials in a shuttle box. They are placed in the lighted compartment and receive an electric footshock when they cross into the preferred side, the dark. The next day, they are again placed in the lighted compartment and the time to enter the dark is noted. The latency to enter the dark compartment is the basis for this figure. […] Below 50 mg/kg no side effects were noted.

[4] = Solubility noted on isolation of the product; type: physicochemical
acetylcholinesterase [5] = molecular target: T1, acetylcholinesterase; assay: Acetylcholinesterase Inhibition Assay (other cholinesterase activity tests, may be less reliable); type: biochemical; details: results may be less reliable
cholinesterase = details: Irwin and Smith, Arch. Int. Pharmacodyn. 127:314-330; cited from earlier work
[6] = Table 1, scopolamine + 0.3 mg/kg sc, cut-off 38 seconds
[7] = Table 1, scopolamine + 2.0 mg/kg sc, cut-off 38 seconds
[8] = Table 1, scopolamine + 3.0 mg/kg sc, cut-off 38 seconds
[9] = 10^−5 molar, read-out: inhibition of acetylcholinesterase at concentration 10^−5
[10] = dilution of 10^−5 molar, read-out: PERCENT INHIBITION OF ACETYLCHOLINESTERASE
[11] = Table 2, scopolamine + 1 mg/kg sc, cut-off 41 seconds
[12] = Table 2, scopolamine + 3 mg/kg sc, cut-off 41 seconds
[13] = Table 2, scopolamine + 10 mg/kg sc, cut-off 41 seconds

4,5-dehydrogalanthamine
cholinesterase inhibition at 10^−5 M (acetylcholinesterase [1]): 30

COc1ccc2c3c1OC1CC(O)C=C[C@@]31CCNC2 (single isomer, unassigned; (-)) [N-demethyl galanthamine, (−) N-demethylgalanthamine]
# > CO/n [2, 6]: 0/15
% > CO [2, 6]: 0%
Mean Latency [2, 6]: 21 s
# > CO/n [2, 7]: 2/15
% > CO [2, 7]: 13%
Mean Latency [2, 7]: 33 s
# > CO/n [2, 8]: 2/15
% > CO [2, 8]: 13%
Mean Latency [2, 8]: 26 s
antagonism of scopolamine induced memory deficit ([2]; doses of 0.3, 1.0 and 3.0 mg/kg): inactive

COc1ccc2c3c1OC1CC(N)CCC31CCN(C)C2 (stereo not drawn) [2-amino-2-dehydroxy lycoramine]
cholinesterase inhibition at 10^−5 M (acetylcholinesterase [1]): 17

COc1ccc2c3c1OC1CC(I)CCC31CCN(C)C2 (stereo not drawn) [2-iodo-2-dehydroxy lycoramine]
cholinesterase inhibition at 10^−5 M (acetylcholinesterase [1]): 15

COc1ccc2c3c1O[C@H]1CC(O)C=C[C@@]31CCN(C)C2 (stereo partly drawn) [Galanthamine, reference compound]
best dose in passive avoidance test [3]: 3 mg/kg

COc1ccc2c3c1OC1CC(O)CCC31CCNC2 (stereo not drawn) [N-demethyl lycoramine]
inhibition of acetylcholinesterase at concentration 10^−5 (acetylcholinesterase [1]; 10^−5 molar): inactive

CN1CC[C@@]23C=C[C@H](O)CC2Oc2c(O)ccc(c23)C1 (stereo partly drawn) [O-demethyl-galanthamine, O-demethyl galanthamine]
inhibition at 10 µM (acetylcholinesterase [1]; [9]): ≥ 100%
inhibition at 1 µM (acetylcholinesterase [1]): 89%
inhibition at 0.001 µM (acetylcholinesterase [1]): 55%

COc1ccc2c3c1O[C@H]1C[C@@H](OC(C)=O)C=C[C@@]31CCN(C)C2 [Product of Example 2, Galanthamine acetate]
inhibition at 10 µM (acetylcholinesterase [1]; [10]): 37%
# > CO/n [2, 11]: 1/15
% > CO [2, 11]: 7%
Mean Latency [2, 11]: 21 s
# > CO/n [2, 12]: 4/15
Mean Latency [2, 12]: 38 s
% > CO ([2]; Table 2, scopolamine + 3 mg/kg sc, cut-off 41 seconds, * = dose considered active): 27* %
# > CO/n [2, 13]: 3/15
Mean Latency [2, 13]: 31 s
% > CO ([2]; Table 2, scopolamine + 10 mg/kg sc, cut-off 41 seconds, * = dose considered active): 20* %
antagonism of scopolamine induced memory deficit ([2]; doses of 3 and 10 mg/kg sc): active

COc1ccc2c3c1O[C@H]1C[C@@H](OC(=O)Nc4ccccc4)C=C[C@@]31CCN(C)C2 [Product of Example 3]
inhibition at 10 µM (acetylcholinesterase [1]; [10]): 37%

COc1ccc2c3c1OC1CC(OC(=O)Nc4cccc5ccccc45)C=CC31CCN(C)C2 (stereo not drawn) [Product of Example 4]
PERCENT INHIBITION OF ACETYLCHOLINESTERASE (acetylcholinesterase [1]; dilution of 10^−5 molar): 60%

COc1ccc2c3c1O[C@H]1C[C@@H](O)CC[C@@]31CCN(C)C2 [Product of Example 5]
inhibition at 10 µM (acetylcholinesterase [1]; [10]): 30%

COc1ccc2c3c1O[C@H]1C[C@@H](O[Si](C(C)C)(C(C)C)C(C)C)C=C[C@@]31CCN(C)C2 [Product of Example 7]
inhibition of acetylcholinesterase at concentration 10^−5 (acetylcholinesterase [1]; 10^−5 molar): 17
solubility in alcohols [4]: soluble

COc1ccc2c3c1OC1C[C@H](Cl)C=C[C@@]31CCN(C)C2 (stereo partly drawn) [Product of Example 10]
inhibition at 10 µM (acetylcholinesterase [1]; [9]): 73%

COc1ccc2c3c1O[C@H]1C[C@@H](OC(=O)C4CC4)C=C[C@@]31CCN(C)C2 [cyclopropyl carbinol ester]
% Inhibition at 10^−6 (acetylcholinesterase [5]): 13%
% Inhibition at 10^−7 (acetylcholinesterase [5]): 0%
% Inhibition at −10^−5 (acetylcholinesterase [5]): 40%

COc1ccc2c3c1OC1CCCC[C@@]31CCN(C)C2 (stereo partly drawn) [deoxylycoramine]
cholinesterase activity (cholinesterase): some activity

COc1ccc2c3c1O[C@H]1C[C@H](OC(C)=O)C=C[C@@]31CCN(C)C2 [epigalanthamine acetate (from Example 8), epigalanthamine acetate]
inhibition at 10 µM (acetylcholinesterase [1]; [9]): 21%
solubility in alcohols [4]: soluble

CCNC(=O)O[C@H]1C=C[C@@]23CCN(C)Cc4ccc(OC)c(c42)O[C@H]3C1 [ethyl carbaxnate]
% Inhibition at 10^−6 (acetylcholinesterase [5]): 70%
% Inhibition at 10^−7 (acetylcholinesterase [5]): 9%
% Inhibition at −10^−5 (acetylcholinesterase [5]): 59%

COc1cc2c3c(c1)OC1C[C@@H](O)C=C[C@@]31CC[N+](C)(Cc1ccccc1)C2.[Br-] (stereo partly drawn) [galanthamine benzyl bromide]
inhibition at 1 µM (acetylcholinesterase [1]): 77%
inhibition at 0.001 µM (acetylcholinesterase [1]): 40%
solubility in alcohols [4]: soluble

COc1ccc2c3c1O[C@H]1C[C@@H](O)C=CC31CC[N+](C)(C)C2.[I-] (stereo partly drawn) [galanthamine methiodide]
solubility in cold water ([4]; cold water): slightly soluble
solubility in hot water ([4]; hot water): soluble

CCCCCC(=O)O[C@H]1C=C[C@@]23CCN(C)Cc4ccc(OC)c(c42)O[C@H]3C1 [hexanoic ester]
% Inhibition at 10^−6 (acetylcholinesterase [5]): 30%
% Inhibition at 10^−7 (acetylcholinesterase [5]): 36%
% Inhibition at −10^−5 (acetylcholinesterase [5]): 55%

COc1ccc2c3c1O[C@H]1C[C@@H](OC(=O)CC(C)C)C=C[C@@]31CCN(C)C2 [iso-valeroyl ester]
% Inhibition at 10^−6 (acetylcholinesterase [5]): 39%
% Inhibition at 10^−7 (acetylcholinesterase [5]): 13%
% Inhibition at −10^−5 (acetylcholinesterase [5]): 33%

CC(C)OC(N)=O [isopropyl carbamate]
% Inhibition at 10^−6 (acetylcholinesterase [5]): 0%
% Inhibition at 10^−7 (acetylcholinesterase [5]): 0%
% Inhibition at −10^−5 (acetylcholinesterase [5]): 21%

COc1ccc2c3c1OC1CC(OC(C)=O)CCC31CC[N+](C)(C)C2.[I-] (stereo not drawn) [lycoramine acetate methiodide]
cholinesterase activity (cholinesterase): ineffective

CCCOC(N)=O [n-propyl carbamate]
% Inhibition at 10^−6 (acetylcholinesterase [5]): 50%
% Inhibition at 10^−7 (acetylcholinesterase [5]): 21%
% Inhibition at −10^−5 (acetylcholinesterase [5]): 34%

COc1cc2c3c(c1)OC1C/C(=N/NC(N)=O)C=C[C@@]31CCN(C)C2 (stereo partly drawn) [narwedine semicarbazone]
inhibition of acetylcholinesterase at concentration 10^−5 (acetylcholinesterase [1]; 10^−5 molar): inactive
solubility in alcohols [4]: soluble

COc1ccc2c3c1OC1C(O)CC=C4C(C2)[N+](C)(C)CCC431.[I-] (stereo not drawn) [neopin methiodide]
cholinesterase activity (cholinesterase): ineffective

COc1ccc2c3c1O[C@H]1C[C@@H](OC(=O)c4ccccc4F)C=C[C@@]31CCN(C)C2 [o-F-benzoic ester]
% Inhibition at 10^−6 (acetylcholinesterase [5]): 39%
% Inhibition at 10^−7 (acetylcholinesterase [5]): 37%
% Inhibition at −10^−5 (acetylcholinesterase [5]): 27%

CCCCCCCCOC(N)=O [octyl carbamate]
% Inhibition at 10^−6 (acetylcholinesterase [5]): 35%
% Inhibition at 10^−7 (acetylcholinesterase [5]): 16%
% Inhibition at −10^−5 (acetylcholinesterase [5]): 55%

CCCCC(=O)O[C@H]1C=C[C@@]23CCN(C)Cc4ccc(OC)c(c42)O[C@H]3C1 [valeric ester]
% Inhibition at 10^−6 (acetylcholinesterase [5]): 35%
% Inhibition at 10^−7 (acetylcholinesterase [5]): 37%
% Inhibition at −10^−5 (acetylcholinesterase [5]): 41%

lycoramine azide
cholinesterase inhibition at 10^−5 M (acetylcholinesterase [1]): 25
